Laboratory results: patent US8580730B2, “Methods of treating lesional vestibular disorders by administering serotonin 5-HT3 receptor antagonists” ((INSERM) Institut National de la Sante et de la Recherche …, priority 2009, dated 2013)
Entries after “also recorded” stand apart in the source; their conditions may differ.

Key:
[1] = system: patients with suspicion of vestibular neuritis; assay: Clinical study of vestibular deficit following acute vestibular neuritis (VNG, hospitalization, first walk); format: in vivo, human; details: 5 days treatment, ondansetron 8 mg/d vs metoclopramide 30 mg/d, n=10 each; for vestibular deficit, VNG at 1 month / vestibular deficit, early VNG (caloric tests): with methylprednisolone and valacyclovir; for vestibular deficit, VNG at 1 month: p=0.07; for vestibular deficit, early VNG (caloric tests): VNG 24 to 48 hours after beginning of deficit; for vestibular deficit, early VNG (caloric tests) / hospitalization duration: p=0.03; for time of first walk: p=0.001
Description: Methods: A clinical study conducted by the inventors at the Centre Hospitalier Universitaire (CHU) of Montpellier was carried out. Random clinical tests were performed on 20 patients. Patients were selected on the suspicion of vestibular neuritis started for less than 24 h before the hospitalization. The patients were all administered with methylprednisolone and valacyclovir, and either a 5 days treatment with Metoclopramide (30 mg/d, n=10) or with Ondansetron (8 mg/d, n=10). The functional evaluation was based on a early VNG (vestibulonystagmography) test (realized 24 to 48 hours after the beginning of the vestibular deficit) and a VNG at 1 month. The hospitalization duration and the date of the first walk were also recorded.

[2] = system: kainate-induced unilateral vestibular deficit; assay: Behavioral evaluation of excitotoxically (kainate)-induced unilateral vestibular deficit; format: in vivo, rat; details: 4 mg/kg ip 1 h after transtympanic KA injection; 24 h after KA; vs untreated; p=0.022 Mann Whitney
Description: Validation of the restorative effect of said serotonin 5-HT3 antagonist is assessed by analysing the time course of arrival and removal of both excitotoxic lesions and ensuing vestibular deficit that occur within vestibular endorgans during intra auricular application of glutamate agonists. In the vestibular endorgans, massive application of kainic acid induces excitotoxic impairments of the neuronal network in the sensory organs (swelling of terminals that contact hair cells-Brugeaud et al., 2007). Histological studies of the expansion and reduction of excitotoxic lesions are undertaken using light and electron microscopy. Behavioural evaluation of vestibular deficit is undertaken using specific behavioural tests of the vestibular function. Under the paradigm developed in the rat, transtympanic application of kainic acid allows its diffusion into the inner ear. […] We evaluate the effect of KA injection using behavioral testing of vestibular deficits and histological quantification of the induced lesion. […] Animals were scored from range 0 to 4, respectively corresponding to normal behavior to maximal vestibular deficit. Rating 1 means that the behavior is not normal but no specific vestibular deficit is effectively determined; rating 2 corresponds to an identified but slight vestibular deficit and, rating 3 describes an identified and evident deficit. […]

[3] = system: hair cells and synaptic terminals of vestibular sensory epithelia (utricles); assay: Histological and morphometric evaluation of kainate-induced vestibular lesions; format: in vivo, rat; details: 4 mg/kg ip 1 h after KA
Description: 1 h after KA injection, vestibular behavior of the animals was tested followed by ondansetron injection in the treatment group. […] Subsequently, the animals were tested at 2 h, 6 h, 24 h and 48 h after KA injection. Histological and morphometric analysis were performed at 2 and 24 hours after KA injection in the presence and absence of ondansetron treatment.
Preparation of semi-thin sections of sensory epithelia. We anesthetized female adult rats (Wistar; 200-220 g; n=3 for each treatment) with pentobarbital (0.4%). Animals were perfused transcardially with heparin PBS (0.01M) followed by a fixative solution (2% paraformaldehyde, 2.5% glutaraldehyde 1% picric acid, 5% sucrose) and samples post-fixed. […] Whole vestibular organs were postfixed in 2% OsO4, dehydrated, embedded in Araldite, and 1 μm thick sections were cut. A Nanozoomer Slide Scanner (RIO imaging, Montpellier, France) allowed the observation and scanning of samples mounted on slides.
Scans of semi-thin sections acquired with the Nanozoomer Slide Scanner were analyzed. Quantification of hair cells in utricles was done with Metamorph software (Universal Imaging). For each lesioned and contralateral ear, 3 sections distant of 20 to 25 μm each were analyzed. Thus, 400 cells for each epithelium were counted for each treatment on 3 different animals with the contralateral ear as pooled control. […] ANOVA was used to search for statistical difference, followed by Tukey Test to compare between treatments.

[4] = system: IDPN-induced bilateral vestibular deficit; assay: Behavioral evaluation of bilateral (nitrile, IDPN)-induced vestibular deficit; format: in vivo, rat
Excerpt: Vestibular rating score was estimated as previously described (Brugeaud et al., 2007; Boadas-Vaello et al. 2005). Animals were scored from range 0 to 4, respectively corresponding to normal behavior to maximal vestibular deficit. Rating 1 means that the behavior is not normal but no specific vestibular deficit is effectively determined; rating 2 corresponds to an identified but slight vestibular deficit and, rating 3 describes an identified and evident deficit. Six different tests were sequentially scored and totalized to rate the vestibular deficit: 1—the head bobbing, when abnormal intermittent backward extension of the neck was observed; 2—the circling stereotyped movement ranging from none to compulsive circles around the animal hips; 3—the retro-pulsion, a typical backward walk reflecting vestibular disturbance; 4—the tail-hanging reflex, that normally induces a normal forelimb extension to reach the ground, results in the ventral bent of the body and grip of the tail when the vestibular deficit is maximal; 5—the contact-inhibition reflex normally leads animal hold to a metal grid in a subpine position to return when their back touch the ground; in case of vestibular deficit with a lack in the body orientation referential, this reflex is abolished, the animal stays griped to the grid in a supine position; 6—the air-righting reflex is necessary for animals to land on their feet when they fall from a supine position; vestibular dysfunction impairs this normal reversal, a maximal deficit leads the animal to land on its back when dropped from a height of 40 cm onto a foam cushion. Vestibular rating scores were expressed for each time point as a percentage of the t0 score.
Validation of the restorative effect of said serotonin 5-HT3 antagonist is also assessed on animal model of bilateral vestibular deficit by analysing the time course of arrival and removal of both excitotoxic lesions and ensuing vestibular deficit following intoxication with nitriles (IP injection—Seoane et al., J. Comp. Neurol. 2001, 439:385-399). […] Protection is assessed by administration of said serotonin 5-HT3 antagonist following different schedules (at the start of chronic intoxication; 24 and 48 h after).
IDPN (1 g/kg; ip) induces bilateral and permanent vestibular damage through destruction of the vestibular sensory epithelium. […] We assessed the effect of IDPN injection using behavioral testing of vestibular deficits. We evaluated the protective effect of single or double injections of ondansetron throughout the time course of injury progression following IDPN injection to determine the vestibuloprotective potential of ondansetron. […]

[5] = Stability of solution comprising ondansetron base; format: physicochemical; details: 1 month storage
Description: Chemical stability of the solution was also assessed: […]

Cc1nccn1CC1CCc2c(c3ccccc3n2C)C1=O (centres unmarked) [Ondansetron, 1,2,3,9-tetrahydro-9-methyl-3-[(2-methyl-1H-imidazol-1-yl)methyl]-4H-carbazol-4-one]
vestibular deficit, VNG at 1 month [1]: 43,0% | vestibular deficit, VNG at 1 month ([1]; listed as O): 43% | vestibular deficit, early VNG (caloric tests) [1]: 56,53% | time of first walk [1]: 1.25 days | hospitalization duration [1]: 2.88 days | vestibular deficits (vestibular rating score) at 24 hours [2]: significantly reduced | number of not-determined hair cells ([3]; 24 hrs after the KA lesion, P<0.01): significantly reduced | number of type I hair cells ([3]; 24 hrs after the KA lesion, p<0.01): significantly increased | maturation of neo-formed synaptic terminals (photonic microscopy) ([3]; 24 hrs after the lesion): seemed to potentiate | time course of increasing vestibular deficits ([4]; 1 dose 4 mg/kg ip 24 h after IDPN injection): not significantly altered | time course of increasing vestibular deficits ([4]; 1 dose 4 mg/kg ip 48 h after IDPN injection): not significantly altered | time course of increasing vestibular deficits ([4]; 1 dose 4 mg/kg ip simultaneously with IDPN 1 g/kg ip): not significantly altered | time course of increasing vestibular deficit / vestibular deficits at 54 h ([4]; 2 doses 4 mg/kg ip 24 and 48 hours after IDPN injection, at 54 h, 4 mg/kg): significant modification; also recorded: significantly less severe | chemical degradation with pH modification [5]: not associated to significant chemical degradation

CCN(CC)CCNC(=O)c1cc(Cl)c(N)cc1OC [Metoclopramide]
vestibular deficit, VNG at 1 month [1]: 63,4% | vestibular deficit, VNG at 1 month ([1]; listed as M): 63.4% | vestibular deficit, early VNG (caloric tests) [1]: 84.38% | vestibular deficit, early VNG (caloric tests) ([1]; listed as metoclopramid): 84,38% | time of first walk [1]: 2.25 days | hospitalization duration [1]: 4.5 days
